Here are results for twelve compounds from patent US11498903B2 (BRISTOL-MYERS SQUIBB COMPANY, priority 2017, dated 2022).

This experiment deals with T1, human APJ receptor (Homo sapiens, UniProt P35414).
T1 construct: expressed in transfected cells
T1 sequence (P35414 1-380): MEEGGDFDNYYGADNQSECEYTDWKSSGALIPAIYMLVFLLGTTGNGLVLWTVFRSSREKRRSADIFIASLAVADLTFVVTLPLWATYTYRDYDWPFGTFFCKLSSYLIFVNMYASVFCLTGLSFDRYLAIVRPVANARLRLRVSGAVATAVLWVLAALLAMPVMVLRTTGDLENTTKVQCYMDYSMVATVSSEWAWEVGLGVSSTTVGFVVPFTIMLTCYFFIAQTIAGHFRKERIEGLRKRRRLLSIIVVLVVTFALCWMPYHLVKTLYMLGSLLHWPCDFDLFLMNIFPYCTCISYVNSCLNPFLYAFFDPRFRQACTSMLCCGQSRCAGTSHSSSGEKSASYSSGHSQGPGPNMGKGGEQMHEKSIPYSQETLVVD
Kind of experiment: Intracellular cAMP accumulation assay (APJ hcAMP, HTRF). It is filed as cell-based. As for the experimental part:
Intracellular cAMP Accumulation Assay
HEK293 cells stably expressing human APJ receptor were used to assess the activity of compounds. Cultured cells were detached and resuspended in the cAMP Homogeneous Time-Resolved Fluorescence (HTRF) assay buffer (Cisbio cat; #62AM4PEJ). The assay was performed in 384-well assay plates (Perkin-Elmer; cat #6008289) according to assay protocol provided by the manufacturer. Serial dilutions of a compound together with assay buffer containing […] IBMX and 2 μM forskolin were added to each well containing 5,000 cells and incubated for 30 minutes at room temperature. Subsequently, cAMP D2 reagent was added in the lysis buffer followed by the EuK antibody (Cisbio; cat #62AM4PEJ) and incubated for 60 min. The fluorescence emission ratio was measured using fluorometer. The intracellular cAMP concentrations (compound-stimulated inhibition of forskolin-mediated cAMP production) were calculated by extrapolation from a standard curve using known cAMP concentrations. The EC50 values were obtained by fitting the data to a sigmoidal concentration-response curve with variable slope. The maximal achievable inhibition of forskolin-induced cAMP levels (Ymax) for each compound was expressed as relative percentage of inhibition attained using pyroglutamated apelin-13 ((Pyrl)apelin-13) peptide, which was set to 100%.
The exemplified Examples disclosed below were tested in the APJ in vitro assays described above and were found having human APJ cyclic AMP (hcAMP) activity. Table 1 lists hcAMP EC50 values measured for the following examples. Ranges are as followε: A=0.0-10 nM; B=10.01-100 nM; C=101-500 nM.
(In general: cAMP levels reflect the balance of adenylyl cyclase and phosphodiesterase activity.)

[1] abbreviates: Table 1, HEK293 cells stably expressing human APJ receptor, inhibition of forskolin-mediated cAMP production, read-out: APJ hcAMP EC50.
Setting [2] is: human APJ, cAMP, potency range class, read-out: APJ cAMP Human EC50.
[3] abbreviates: Table 3, HEK293 cells stably expressing human APJ receptor, read-out: APJ cAMP Human EC50.

Read-outs that look alike come from different tables or passages of the source. Where only a bound is given, the exact number is not on record here.

A word on the EC50: it is the concentration at which the effect is half-maximal. Take `CCC[C@@H](NC(=O)c1ccc(-c2c(Cl)cccc2-c2nc3ccc(F)c(F)c3[nH]2)c(C(=O)O)c1)C1CCCCC1` (atropisomer, axis not shown) [Example 159, (S)-2′-chloro-4-{[(1R)-1-cyclohexylbutyl]carbamoyl}-6′-(6,7-difluoro-1H-1,3-benzodiazol-2-yl)-[1,1′-biphenyl]-2-carboxylic acid]: the EC50 under setting [1] is < 10 nM and the EC50 under setting [2] was < 10 nM.
Take `CCC[C@@H](NC(=O)c1ccc(-c2c(Cl)cccc2-c2nc3cc(F)c(F)cc3[nH]2)c(C(=O)O)c1)C1CCCCC1` (atropisomer, axis not shown) [Example 162, (S)-2′-chloro-4-{[(1R)-1-cyclohexylbutyl]carbamoyl}-6′-(5,6-difluoro-1H-1,3-benzodiazol-2-yl)-[1,1′-biphenyl]-2-carboxylic acid]: the EC50 under setting [1] was < 10 nM and the EC50 under setting [2] was < 10 nM.
Consider `O=C(NC(CCC(F)(F)F)c1ccccc1)c1ccc(-c2cc(Cl)ccc2-c2nc3ccccc3[nH]2)c(C(=O)O)c1` (racemic) [Example 158, 2′-(1H-Benzo[d]imidazol-2-yl)-5′-chloro-4-((4,4,4-trifluoro-1-phenylbutyl)carbamoyl)-[1,1′-biphenyl]-2-carboxylic acid], for which the EC50 under setting [1] was 10 to 100 nM and the EC50 under setting [2] was 10 to 100 nM.
As for `CC(C)CC(NC(=O)c1ccc(-c2cc(Cl)ccc2-c2nc3ccccc3[nH]2)c(C(=O)O)c1)c1ccccc1` (racemic) [Example 210, 2′-(1H-1,3-benzodiazol-2-yl)-5′-chloro-4-[(3-methyl-1-phenylbutyl)carbamoyl]-[1,1′-biphenyl]-2-carboxylic acid], the concentration giving a half-maximal response (EC50) was < 10 nM under setting [1] and < 10 nM under setting [2].
Turning to `CC(C)(C)CC(NC(=O)c1ccc(-c2cc(Cl)ccc2-c2nc3ccccc3[nH]2)c(C(=O)O)c1)c1ccccc1` (racemic) [Example 212, 2′-(1H-1,3-benzodiazol-2-yl)-5′-chloro-4-[(3,3-dimethyl-1-phenylbutyl)carbamoyl]-[1,1′-biphenyl]-2-carboxylic acid], the EC50 is, setting by setting: under setting [1], 10 to 100 nM; under setting [2], 10 to 100 nM.
For the compound `CCC(NC(=O)c1ccc(-c2cc(Cl)ccc2-c2nc3ccccc3[nH]2)c(C(=O)O)c1)c1ccccn1` (racemic) [Example 213, 2′-(1H-1,3-benzodiazol-2-yl)-5′-chloro-4-{[1-(pyridin-2-yl)propyl]carbamoyl}-[1,1′-biphenyl]-2-carboxylic acid], the EC50 runs as follows: under setting [1], 10 to 100 nM; under setting [2], 10 to 100 nM.
As to `CCC(NC(=O)c1ccc(-c2cc(Cl)ccc2-c2nc3ccccc3[nH]2)c(C(=O)O)c1)c1ccncc1` (racemic) [Example 214, 2′-(1H-1,3-benzodiazol-2-yl)-5′-chloro-4-{[1-(pyridin-4-yl)propyl]carbamoyl}-[1,1′-biphenyl]-2-carboxylic acid], the EC50 is, setting by setting: under setting [1], 10 to 100 nM; under setting [2], 10 to 100 nM.
Turning to `CCC[C@@H](NC(=O)c1ccc(-c2c(C)cccc2-c2nc3cc(C(F)(F)F)ccc3[nH]2)c(C(=O)O)c1)c1ccccc1` (single isomer, unassigned) [Example 146], the EC50 reads like this: under setting [1], < 10 nM; under setting [3], < 10 nM.
In the case of `CCC[C@@H](NC(=O)c1ccc(-c2c(C)cccc2-c2nc3cc(C(F)(F)F)ccc3[nH]2)c(C(=O)O)c1)c1ccccc1` (single isomer, unassigned) [Example 147], the EC50 under setting [3] lay in the range of 101 to 500 nM.
Turning to `CCCC(NC(=O)c1ccc(-c2c(Cl)cccc2-c2nc3cc(Cl)c(F)cc3[nH]2)c(C(=O)O)c1)C1CCCCC1` (single isomer, unassigned) [Example 161], the EC50 under setting [1] was < 10 nM and the EC50 under setting [2] was < 10 nM.
Regarding `CCCC(NC(=O)c1ccc(-c2c(Cl)cccc2-c2nc3ccccc3[nH]2)c(C(=O)O)c1)c1c(C)cc(C)cc1C` (single isomer, unassigned) [Example 163], the EC50 is < 10 nM under setting [1] and < 10 nM under setting [2].
For the compound `CCCC(NC(=O)c1ccc(-c2c(Cl)cccc2-c2nc3ccccc3[nH]2)c(C(=O)O)c1)c1ccc(Cl)cc1OC` (single isomer, unassigned) [Example 164], the EC50 under setting [1] is < 10 nM and the EC50 under setting [2] is < 10 nM.
